Experimental data: patent US7138361B2, “Herbicidal heterocycles” (E. I. du Pont de Nemours and Company, priority 2000, dated 2006)

Experiments:
Assay type in all cases: in vivo
[1] = tested on: Surinam grass (Brachiaria decumbens); assay: Test B preemergence
Procedure, shortened: (§1)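 Ratings on a 0 to 100 visual scale (100 complete control) compare treated plants with controls 13 to 15 days after application. Treatments were pre- or postemergence sprays of compound in non-phytotoxic solvent with surfactant.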

[2] = tested on: barnyardgrass (Echinochloa crus-galli); assay: Test B preemergence
Procedure, shortened: as §1

[3] = tested on: cocklebur (Xanthium strumarium); assay: Test B preemergence
Procedure, shortened: as §1

[4] = tested on: corn (Zea mays); assay: Test B preemergence
Procedure, shortened: as §1

[5] = tested on: crabgrass (Digitaria sanguinalis); assay: Test B preemergence
Procedure, shortened: as §1

[6] = tested on: giant foxtail (Setaria faberii); assay: Test B preemergence
Procedure, shortened: as §1

[7] = tested on: lambsquarters (Chenopodium album); assay: Test B preemergence
Procedure, shortened: as §1

[8] = tested on: morning glory (Ipomoea hederacea); assay: Test B preemergence
Procedure, shortened: as §1

[9] = tested on: pigweed (Amaranthus retroflexus); assay: Test B preemergence
Procedure, shortened: as §1

[10] = tested on: rice (Oryza saliva); assay: Test B preemergence
Procedure, shortened: as §1

[11] = tested on: velvetleaf (Abutilon theophrasti); assay: Test B preemergence
Procedure, shortened: as §1

[12] = tested on: Surinam grass (Brachiaria decumbens); assay: Test C preemergence; conditions: for Plant response rating (0 to 100), Surinam grass: Rate 500 g/ha, visual evaluation after 12 to 14 days
Procedure, shortened: (§2)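 Seeds are planted and treated before emergence; for the postemergence test, plants at 1- to 4-leaf stage (2–18 cm) receive the same formulation, a solvent blend containing surfactant. Plants stay in the greenhouse 12–14 days, then response is scored visually from 0 (none) to 100 (complete control).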

[13] = tested on: bermudagrass (Cynodon dactylon); assay: Test C preemergence; conditions: for Plant response rating (0 to 100 where 0 is no effect and 100 is complete control), Bermudagrass: Rate 500 g/ha, visual evaluation after 12 to 14 days
Procedure, shortened: as §2

[14] = tested on: cocklebur (Xanthium strumarium); assay: Test C preemergence; conditions: for Plant response rating (0 to 100), Cocklebur: Rate 500 g/ha, visual evaluation after 12 to 14 days
Procedure, shortened: as §2

[15] = tested on: crabgrass (Digitaria sanguinalis); assay: Test C preemergence; conditions: for Plant response rating (0 to 100), Crabgrass: Rate 500 g/ha, visual evaluation after 12 to 14 days
Procedure, shortened: as §2

[16] = tested on: giant foxtail (Setaria faberii); assay: Test C preemergence; conditions: for Plant response rating (0 to 100), Foxtail, Giant: Rate 500 g/ha, visual evaluation after 12 to 14 days
Procedure, shortened: as §2

[17] = tested on: kochia (Kochia scoparia); assay: Test C preemergence; conditions: for Plant response rating (0 to 100), Kochia: Rate 500 g/ha, visual evaluation after 12 to 14 days
Procedure, shortened: as §2

[18] = tested on: pigweed (Amaranthus retroflexus); assay: Test C preemergence; conditions: for Plant response rating (0 to 100), Pigweed: Rate 500 g/ha, visual evaluation after 12 to 14 days
Procedure, shortened: as §2

[19] = tested on: soybean (Glycine max); assay: Test C preemergence; conditions: for Plant response rating (0 to 100), Soybean: Rate 500 g/ha, visual evaluation after 12 to 14 days
Procedure, shortened: as §2

[20] = tested on: woolly cupgrass (Eriochloa villosa); assay: Test C preemergence; conditions: for Plant response rating (0 to 100), Cupgrass, Woolly: Rate 500 g/ha, visual evaluation after 12 to 14 days
Procedure, shortened: as §2

[21] = tested on: Nightshade; assay: Test C preemergence; conditions: Rate 500 g/ha, visual evaluation after 12 to 14 days
[22] = tested on: Sunflower; assay: Test C preemergence; conditions: Rate 250 g/ha, scale 0 to 100, 0 no effect, 100 complete control
[23] = Preemergence, Rate 500 g/ha, scale 0 to 100, 0 no effect, 100 complete control
[24] = preemergence, Rate 125 g/ha, scale of 0 to 100 where 0 is no effect and 100 is complete control, 13 to 15 days
[25] = Rate 125 g/ha, scale 0 to 100, 0 no effect, 100 complete control
[26] = preemergence, Rate 62 g/ha, scale 0 to 100
[27] = preemergence, Rate 250 g/ha, scale 0 to 100, 0 no effect, 100 complete control

CCC(C)c1ccn(C2CCN(c3cccc(OC)c3)C2=O)n1 (stereo not drawn) [Compound 95]
Plant response rating, Surinam grass [1, 23]: 90
Plant response rating, Surinam grass [1, 24]: 60
Plant response rating, Barnyardgrass [2, 23]: 100
Plant response rating, Barnyardgrass [2, 24]: 90
Plant response rating, Cocklebur [3, 23]: 60
Plant response rating, Cocklebur [3, 24]: 0
Plant response rating, Corn [4, 23]: 50
Plant response rating, Corn [4, 24]: 20
Plant response rating, Crabgrass [5, 23]: 100
Plant response rating, Crabgrass [5, 24]: 100
Plant response rating, Foxtail, Giant [6, 23]: 100
Plant response rating, Foxtail, Giant [6, 24]: 100
Plant response rating, Lambsquarters [7, 23]: 100
Plant response rating, Lambsquarters [7, 24]: 100
Plant response rating, Morningglory [8, 23]: 60
Plant response rating, Morningglory [8, 24]: 0
Plant response rating, Pigweed [9, 23]: 100
Plant response rating, Pigweed [9, 24]: 100
Plant response rating, Rice [10, 23]: 100
Plant response rating, Rice [10, 24]: 90
Plant response rating, Velvetleaf [11, 23]: 50
Plant response rating, Velvetleaf [11, 24]: 0
Plant response rating, Surinam grass [12, 25]: 40
Plant response rating, Surinam grass [12, 26]: 40
Plant response rating (0 to 100), Surinam grass ([12]; preemergence): 100
Plant response rating, Surinam grass [12, 27]: 50
Plant response rating, Bermudagrass [13, 25]: 100
Plant response rating, Bermudagrass [13, 26]: 100
Plant response rating (0 to 100 where 0 is no effect and 100 is complete control), Bermudagrass ([13]; preemergence): 100
Plant response rating, Bermudagrass [13, 27]: 100
Plant response rating, Cocklebur [14, 25]: 0
Plant response rating, Cocklebur [14, 26]: 0
Plant response rating (0 to 100), Cocklebur ([14]; preemergence): 0
Plant response rating, Cocklebur [14, 27]: 0
Plant response rating, Crabgrass [15, 25]: 100
Plant response rating, Crabgrass [15, 26]: 100
Plant response rating (0 to 100), Crabgrass ([15]; preemergence): 100
Plant response rating, Crabgrass [15, 27]: 100
Plant response rating, Foxtail, Giant [16, 25]: 0
Plant response rating, Foxtail, Giant [16, 26]: 0
Plant response rating (0 to 100), Foxtail, Giant ([16]; preemergence): 100
Plant response rating, Foxtail, Giant [16, 27]: 0
Plant response rating, Kochia [17, 25]: 100
Plant response rating, Kochia [17, 26]: 100
Plant response rating (0 to 100), Kochia ([17]; preemergence): 100
Plant response rating, Kochia [17, 27]: 100
Plant response rating, Pigweed [18, 25]: 0
Plant response rating, Pigweed [18, 26]: 100
Plant response rating (0 to 100), Pigweed ([18]; preemergence): 60
Plant response rating, Pigweed [18, 27]: 0
Plant response rating, Soybean [19, 25]: 0
Plant response rating, Soybean [19, 26]: 0
Plant response rating (0 to 100), Soybean ([19]; preemergence): 30
Plant response rating, Soybean [19, 27]: 0
Plant response rating, Cupgrass, Woolly [20, 25]: 100
Plant response rating, Cupgrass, Woolly [20, 26]: 50
Plant response rating (0 to 100), Cupgrass, Woolly ([20]; preemergence): 100
Plant response rating, Cupgrass, Woolly [20, 27]: 100
Plant response rating (0 to 100), Nightshade [21]: 45
Plant response rating, Sunflower [22]: 0

CCC(CC)c1ccn(C2CCN(c3cccc(OC)c3)C2=O)n1 (stereo not drawn) [Compound 96]
Plant response rating, Surinam grass [1, 23]: 80
Plant response rating, Surinam grass [1, 24]: 50
Plant response rating, Barnyardgrass [2, 23]: 100
Plant response rating, Barnyardgrass [2, 24]: 100
Plant response rating, Cocklebur [3, 23]: 30
Plant response rating, Cocklebur [3, 24]: 20
Plant response rating, Corn [4, 23]: 20
Plant response rating, Corn [4, 24]: 0
Plant response rating, Crabgrass [5, 23]: 100
Plant response rating, Crabgrass [5, 24]: 100
Plant response rating, Foxtail, Giant [6, 23]: 100
Plant response rating, Foxtail, Giant [6, 24]: 100
Plant response rating, Lambsquarters [7, 23]: 100
Plant response rating, Lambsquarters [7, 24]: 100
Plant response rating, Morningglory [8, 23]: 80
Plant response rating, Morningglory [8, 24]: 0
Plant response rating, Pigweed [9, 23]: 100
Plant response rating, Pigweed [9, 24]: 100
Plant response rating, Rice [10, 23]: 100
Plant response rating, Rice [10, 24]: 70
Plant response rating, Velvetleaf [11, 23]: 50
Plant response rating, Velvetleaf [11, 24]: 0
Plant response rating, Surinam grass [12, 25]: 90
Plant response rating, Surinam grass [12, 26]: 50
Plant response rating (0 to 100), Surinam grass ([12]; preemergence): 100
Plant response rating, Surinam grass [12, 27]: 100
Plant response rating, Bermudagrass [13, 25]: 100
Plant response rating, Bermudagrass [13, 26]: 100
Plant response rating (0 to 100 where 0 is no effect and 100 is complete control), Bermudagrass ([13]; preemergence): 100
Plant response rating, Bermudagrass [13, 27]: 100
Plant response rating, Cocklebur [14, 25]: 20
Plant response rating, Cocklebur [14, 26]: 0
Plant response rating (0 to 100), Cocklebur ([14]; preemergence): 30
Plant response rating, Cocklebur [14, 27]: 30
Plant response rating, Crabgrass [15, 25]: 100
Plant response rating, Crabgrass [15, 26]: 100
Plant response rating (0 to 100), Crabgrass ([15]; preemergence): 100
Plant response rating, Crabgrass [15, 27]: 100
Plant response rating, Foxtail, Giant [16, 25]: 0
Plant response rating, Foxtail, Giant [16, 26]: 100
Plant response rating (0 to 100), Foxtail, Giant ([16]; preemergence): 100
Plant response rating, Foxtail, Giant [16, 27]: 0
Plant response rating, Kochia [17, 25]: 100
Plant response rating, Kochia [17, 26]: 100
Plant response rating (0 to 100), Kochia ([17]; preemergence): 100
Plant response rating, Kochia [17, 27]: 100
Plant response rating, Pigweed [18, 25]: 0
Plant response rating, Pigweed [18, 26]: 0
Plant response rating (0 to 100), Pigweed ([18]; preemergence): 50
Plant response rating, Pigweed [18, 27]: 0
Plant response rating, Soybean [19, 25]: 0
Plant response rating, Soybean [19, 26]: 0
Plant response rating (0 to 100), Soybean ([19]; preemergence): 70
Plant response rating, Soybean [19, 27]: 50
Plant response rating, Cupgrass, Woolly [20, 25]: 95
Plant response rating, Cupgrass, Woolly [20, 26]: 60
Plant response rating (0 to 100), Cupgrass, Woolly ([20]; preemergence): 100
Plant response rating, Cupgrass, Woolly [20, 27]: 100
Plant response rating (0 to 100), Nightshade [21]: 80
Plant response rating, Sunflower [22]: 50
